Measurements as given in PMC3062741 (Behavioural brain research, 2011).

System: Male Sprague-Dawley rats
Assay: Locomotor activity
Assay type: in vivo, rat
Conditions: for Locomotor Activity Day 1, mean distance traveled: 60-min session

`COC(=O)C(c1ccccc1)C1CCCCN1` (stereo not drawn) [MPD, Methylphenidate] was tested, and the “time course of locomotor activity compared to saline-treated rats” value (shortened to “time course … compared to saline-treated rats”) (Day 1, EC rats, MPD 3 mg/kg) was “significantly greater during the 25–60-min intervals”, the “time course … compared to saline-treated rats” value (Day 1, EC rats, MPD 10 mg/kg) was “significantly greater during the 20–60-min intervals” and the “time course … compared to saline-treated rats” value (Day 1, IC rats, MPD 3 mg/kg) was “significantly greater during the 30-, 50- and 60-min intervals”. For the same compound, the “time course … compared to saline-treated rats” value (Day 1, IC rats, MPD 10 mg/kg) was “significantly greater during the 15–60-min intervals”, the “time course … compared to saline-treated rats” value (Day 1, SC rats, MPD 3 mg/kg) was “more active than saline-treated SC rats during the 30–60-min time intervals” and the “time course … compared to saline-treated rats” value (Day 1, SC rats, MPD 10 mg/kg) was “more active than saline-treated SC rats during the 15–60-min time intervals”. The “time course … compared to saline-treated rats” value (Day 10, EC rats, MPD 3 mg/kg) was “only IC rats treated with 3 mg/kg of MPD displayed greater activity”, the “time course … compared to saline-treated rats” value (Day 10, EC rats, MPD 10 mg/kg) was “more active than the saline controls during each time interval” and the “time course … compared to saline-treated rats” value (Day 10, IC rats, MPD 3 mg/kg) was “significantly greater activity in IC rats relative to saline controls beginning at the 30-min time interval”. For the same compound, the “time course … compared to saline-treated rats” value (Day 10, IC rats, MPD 10 mg/kg) was “more active than the saline controls during each time interval except the 5-min interval in the IC group”, the “time course … compared to saline-treated rats” value (Day 10, SC rats, MPD 3 mg/kg) was “more active than saline-treated SC rats during the 10–60-min time intervals” and the “time course … compared to saline-treated rats” value (Day 10, SC rats, MPD 10 mg/kg) was “more active than saline-treated SC rats during the 10–60-min time intervals”. For the same compound, the “total locomotor activity across Days 1–10 compared with Day 1” value (EC rats, MPD 3 mg/kg once daily) was “greater locomotor activity on Day 2 than on Day 1”, the “Locomotor Activity Day 10, mean distance traveled” value (EC rats, MPD 3 mg/kg s.c. once daily) was 4438 cm and the “Locomotor Activity Day 1, mean distance traveled” value (EC rats, MPD 3 mg/kg s.c.) was 9482 cm. The “total locomotor activity across Days 1–10 compared with Day 1” value (EC rats, MPD 10 mg/kg once daily) was “greater locomotor activity on Days 4, 5 and 10 than on Day 1”, the “Locomotor Activity Day 10, mean distance traveled” value (EC rats, MPD 10 mg/kg s.c. once daily) was 29196 cm and the “Locomotor Activity Day 1, mean distance traveled” value (EC rats, MPD 10 mg/kg s.c.) was 15665 cm. The “total locomotor activity across Days 1–10 compared with Day 1” value (IC rats, MPD 3 mg/kg once daily) was “greater locomotor activity on Days 2–9 than on Day 1”, the “Locomotor Activity Day 10, mean distance traveled” value (IC rats, MPD 3 mg/kg s.c. once daily) was 13980 cm and the “Locomotor Activity Day 1, mean distance traveled” value (IC rats, MPD 3 mg/kg s.c.) was 9775 cm. The “total locomotor activity across Days 1–10 compared with Day 1” value (IC rats, MPD 10 mg/kg once daily) was “no significant main effect of Day”, the “Locomotor Activity Day 10, mean distance traveled” value (IC rats, MPD 10 mg/kg s.c. once daily) was 28531 cm and the “Locomotor Activity Day 1, mean distance traveled” value (IC rats, MPD 10 mg/kg s.c.) was 20653 cm. The “total locomotor activity across Days 1–10 compared with Day 1” value (SC rats, MPD 3 mg/kg once daily) was “activity on Days 2–10 was greater than activity on Day 1”, the “Locomotor Activity Day 10, mean distance traveled” value (SC rats, MPD 3 mg/kg s.c. once daily) was 23675 cm and the “Locomotor Activity Day 1, mean distance traveled” value (SC rats, MPD 3 mg/kg s.c.) was 15020 cm. For the same compound, the “total locomotor activity across Days 1–10 compared with Day 1” value (SC rats, MPD 10 mg/kg once daily) was “locomotor activity on Days 3, 5–7 and 10 was greater than that on Day 1”, the “Locomotor Activity Day 10, mean distance traveled” value (SC rats, MPD 10 mg/kg s.c. once daily) was 31954 cm and the “Locomotor Activity Day 1, mean distance traveled” value (SC rats, MPD 10 mg/kg s.c.) was 22406 cm.
